Results reported in US12629405B2, “Ezrin peptide 1 for use in a method of treating COVID-19” ([…], priority 2020, dated 2026).
Ends that are not written are not given here.

Tests used:
SARS-COV-2 = test: Treatment of COVID-19 patients with Ezrin peptide 1 (individual case reports, Examples 1-6); type: in vivo, human
Toxicity at high dosages = type: in vivo; settings: high dosages of 50 mg per kg body weight per day or higher
Procedure: The dosage of Ezrin peptide 1 and its analogues is not particularly critical, as Ezrin peptide 1 and its analogues are not toxic even at high dosages of 50 mg per kg body weight per day or higher. Preferably, Ezrin peptide 1 and its analogues are administered to an adult human in an amount of at least 0.1 mg per day, in particular at least 0.2 mg per day, e.g. in an amount of at least 0.5 mg per day, such as 0.1 to 50 mg per day or 0.2 to 20 mg per day or 0.5 to 10 mg per day. Typically for parental administrations lower dosages will be required than for oral or rectal administration. To achieve a rapid relief of the symptoms of COVID-19 it may be reasonable to administer at least 1 mg per day or at least 2 mg per day but in other cases a lower dosage may be suitable.

J-96 Human Cell Line = settings: cell cultures (Ataullakhanov et al. 2005); cited from earlier work
[1] = tested on: inflammatory cytokine production; settings: cell cultures; cited from earlier work

TEKKRRETVEREKE [Ezrin peptide 1, NH2_Thr-Glu-Lys-Lys-Arg-Arg-Glu-Thr-Val-Glu-Arg-Glu-Lys-Glu_COOH]
severe complications such as fibrosis of the lungs (SARS-COV-2; Example 1): did not occur
course of disease, symptoms (SARS-COV-2; Example 1, patient, 0.2 mg s.c. daily, 16.03.2020, 3rd administration): increasing symptoms with strong eye pain
course of disease, symptoms (SARS-COV-2; Example 1, patient, 0.2 mg s.c. daily, 17.03.2020, 4th administration): increasing symptoms with more cough
course of disease, symptoms (SARS-COV-2; Example 1, patient, 0.2 mg s.c. daily, 18.03.2020, 5th administration): significant signs of recovery, no eye pain, decreasing fever
course of disease, symptoms (SARS-COV-2; Example 1, patient, 0.2 mg s.c. daily, 19.03.2020, 6th administration): significant signs of recovery, normal body temperature, no fatigue
course of disease, symptoms (SARS-COV-2; Example 1, patient, 0.2 mg s.c. daily, 20.03.2020, 7th administration): return of taste, good general condition
course of disease, symptoms (SARS-COV-2; Example 1, patient, 0.2 mg s.c. daily, 21.03.2020, 8th administration): no signs of illness anymore
course of the disease (duration) (SARS-COV-2; Example 1, compared to the course expected for patients of this risk group): significantly shorter
severity of symptoms after administration (SARS-COV-2; Example 1, compared with what one would have expected in a patient of this risk group): significantly lower
course of disease, symptoms (SARS-COV-2; Example 2, patient, 2 mg s.c., 25.04.2020, second dose): still general weakness, shortness of breath, cough, loss of appetite
body temperature (SARS-COV-2; Example 2, patient, 2 mg s.c., 26.04.2020 in the evening, third administration): 37.5 °C
course of disease, symptoms (SARS-COV-2; Example 2, patient, 2 mg s.c., 26.04.2020, third administration): Still loss of appetite, slight cough
course of disease, symptoms (SARS-COV-2; Example 2, patient, 2 mg s.c., 27.04.2020, fourth dose): Slight cough, slight headache
course of disease, symptoms (SARS-COV-2; Example 2, patient, 2 mg s.c., 28.04.2020, fifth administration): Only slight pain of touching the scalp, still slight weakness
course of disease, symptoms (SARS-COV-2; Example 2, patient, 2 mg s.c., 30.04.2020, sixth administration): Significant improvement of clinical symptoms, normal temperature
course of disease, symptoms (SARS-COV-2; Example 2, patient, 01. to 04.05.2020, after six doses, antibiotic coverage): taste completely returned, no more cough, no more fever, clinical well-being
course of disease, symptoms (SARS-COV-2; Example 3, patient, 25.12.2020, therapy begun 23.12.2020 with 2 mg/d s.c.): significant improvement of cough and general condition
course of disease, symptoms (SARS-COV-2; Example 3, patient, after completion of therapy (2 mg/d then 0.2 mg/d for four days, s.c.)): No further symptoms
course of disease, symptoms (SARS-COV-2; Example 4, patient, 25.12.2020, therapy begun 23.12.2020 with 2 mg/d s.c.): significant improvement of cough and general condition
course of disease, symptoms (SARS-COV-2; Example 4, patient, after completion of therapy (2 mg/d two days, 0.2 mg/d four days, s.c.)): No further symptoms
course of disease, symptoms (SARS-COV-2; Example 5, patient, 26.12.2020, therapy begun 23.12.2020 with 2 mg/d s.c.): significant improvement of symptoms
shortness of breath (SARS-COV-2; Example 5, patient, after subsequent 0.2 mg/d s.c. for fourteen days from 15.01.2021): No further shortness of breath
course of disease, symptoms (SARS-COV-2; Example 6, patient, 14.12.2020, 0.2 mg/d s.c. begun 10.12.2020): significant improvement of symptoms
course of disease, symptoms (SARS-COV-2; Example 6, patient, 20.12.2020, 0.2 mg/d s.c. for ten days): complete recovery of symptoms
toxicity (Toxicity at high dosages): not toxic
anti-viral effect (J-96 Human Cell Line): anti-viral effect
production of pro- and inflammatory cytokins (e.g. IL-1, IL-6, TNF-alpha) [1]: reduces
synthesis of alpha- and beta interferons [1]: induces
